According to EP2283824B1, “Compositions and formulations based on swellable matrices for sustained release of poorly soluble drugs such as clarithromycin” (Special Product's Line S.p.A., priority 2009, dated 2011):
≈ marks a conversion by molar mass, not a printed value.

Experiments:
[1] = Approximate solubility in water at different pH values
[2] = physchem

Row | SMILES | solubility ([1]; pH 1, simulated gastric fluid) [mg/mL] | solubility ([1]; pH 4.5, aqueous buffer) [mg/mL] | solubility ([1]; pH 6, aqueous buffer) [mg/mL] | solubility ([2]; pH 1, simulated gastric fluid) [mg/mL] | solubility ([2]; pH 2, simulated gastric fluid) [mg/mL] | solubility ([2]; pH 4.5, aqueous buffer) [mg/mL] | solubility ([2]; pH 6, aqueous buffer) [mg/mL]
1 | CC[C@H]1OC(=O)[C@H](C)[C@@H](O[C@H]2C[C@@](C)(OC)[C@@H](O)[C@H](C)O2)[C@H](C)[C@@H](O[C@@H]2O[C@H](C)C[C@H](N(C)C)[C@H]2O)[C@](C)(OC)C[C@@H](C)C(=O)[C@H](C)[C@@H](O)[C@]1(C)O [clarithromycin] | 26.1 (≈ 34.9 mM) | 3.9 (≈ 5.21 mM) | 3.3 (≈ 4.41 mM) |  |  |  | 
2 | CC[C@H]1OC(=O)[C@H](C)[C@@H](O[C@H]2C[C@@](C)(OC)[C@@H](O)[C@H](C)O2)[C@H](C)[C@@H](O[C@@H]2O[C@H](C)C[C@H](N(C)C)[C@H]2O)[C@](C)(O)C[C@](C)(F)C(=O)[C@H](C)[C@@H](O)[C@]1(C)O [flurithromycin] |  |  |  | 22 (≈ 29.3 mM) | 11.8 (≈ 15.7 mM) | 4.2 (≈ 5.59 mM) | 0.3 (≈ 0.399 mM)
